# In patent US12378224B2 (Dong-A Socio Holdings Co., Ltd., priority 2016, dated 2025):
# Molecular target: human MER (528-end) (Homo sapiens (Human), UniProt Q12866)
# Test: HTRF Kinase Activity Biochemical Assay (KinEASE-TK)
# Settings: 10 uM ATP
# Procedure, shortened: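 Activity read-out is the HTRF ratio (665 nm over 620 nm emission, ×10,000; excitation 340 nm) after 1 h detection with 0.375 nM Eu3+-cryptate anti-TK antibody plus 0.062 uM SA-XL665. Preceding kinase step: human MER (528-end), biotinylated TK substrate, 1 h, room temperature.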
# human MER (528-end), sequence (Q12866 528-999 limits assumed): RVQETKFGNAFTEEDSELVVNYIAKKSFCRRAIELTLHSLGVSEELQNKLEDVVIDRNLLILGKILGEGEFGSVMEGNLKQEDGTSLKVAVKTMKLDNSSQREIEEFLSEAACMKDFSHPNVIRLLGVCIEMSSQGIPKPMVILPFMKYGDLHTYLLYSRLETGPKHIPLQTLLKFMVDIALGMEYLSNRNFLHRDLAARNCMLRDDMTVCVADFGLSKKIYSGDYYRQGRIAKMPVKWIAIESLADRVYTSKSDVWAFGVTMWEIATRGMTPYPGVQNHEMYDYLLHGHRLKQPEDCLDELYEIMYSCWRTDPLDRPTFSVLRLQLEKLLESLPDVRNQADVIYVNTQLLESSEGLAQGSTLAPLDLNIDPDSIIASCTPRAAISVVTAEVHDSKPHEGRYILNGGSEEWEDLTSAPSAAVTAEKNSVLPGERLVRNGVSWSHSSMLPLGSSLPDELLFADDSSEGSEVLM
row,IC50 [nM],Compound
1,100 to 1000,"Cn1cc(-c2cnc(N)c(C(=O)N[C@@H]3CCN(C(=O)Oc4ccc(Oc5ccc(N)cc5)cc4)C3)c2)cn1 [Example 112, 4-(4-aminophenoxy)phenyl (R)-3-(2-amino-5-(1-methyl-1H-pyrazol-4-yl)nicotinamido)pyrrolidine-1-carboxylate]"
2,100 to 1000,"Cn1cc(-c2cnc(N)c(C(=O)N[C@@H]3CCN(C(=O)Oc4ccc(Oc5ccc(CO)cc5)cc4)C3)c2)cn1 [Example 114, 4-(4-(hydroxymethyl)phenoxy)phenyl (R)-3-(2-amino-5-(1-methyl-1H-pyrazol-4-yl)nicotinamido)pyrrolidine-1-carboxylate]"
3,100 to 1000,"Cn1cc(-c2cnc(N)c(C(=O)N[C@@H]3CCN(C(=O)Oc4cc(Cl)cc(Cl)c4)C3)c2)cn1 [Example 116, 3,5-dichlorophenyl (R)-3-(2-amino-5-(1-methyl-1H-pyrazol-4-yl)nicotinamido)pyrrolidine-1-carboxylate]"
4,> 1000,"Cn1cc(-c2cnc(N)c(C(=O)N[C@@H]3CCN(C(=O)OC4CCC(c5ccccc5)CC4)C3)c2)cn1 (stereo partly drawn) [Example 125, 4-phenylcyclohexyl (R)-3-(2-amino-5-(1-methyl-1H-pyrazol-4-yl)nicotinamido)pyrrolidine-1-carboxylate]"
5,> 1000,"CN(C(=O)c1cc(-c2cnn(C)c2)cnc1N)[C@@H]1CCN(C(=O)Oc2cccc(-c3ccccc3)c2)C1 [Example 130, [1,1′-biphenyl]-3-yl (R)-3-(2-amino-N-methyl-5-(1-methyl-1H-pyrazol-4-yl)nicotinamido)pyrrolidine-1-carboxylate]"
6,> 1000,"Cn1cc(-c2cnc(N)c(C(=O)N[C@@H]3CCN(c4nc5ccccc5[nH]4)C3)c2)cn1 [Example 133, (R)—N-(1-(1H-benzo[d]imidazol-2-yl)pyrrolidin-3-yl)-2-amino-5-(1-methyl-1H-pyrazol-4-yl)nicotinamide]"
7,> 1000,"Cn1cc(-c2cnc(N)c(C(=O)N[C@@H]3CCN(c4ccccn4)C3)c2)cn1 [Example 135, (R)-2-amino-5-(1-methyl-1H-pyrazol-4-yl)-N-(1-(pyridin-2-yl)pyrrolidin-3-yl)nicotinamide]"
8,> 1000,"CCc1cnc(N2CC[C@@H](NC(=O)c3cc(-c4cnn(C)c4)cnc3N)C2)nc1 [Example 136, (R)-2-amino-N-(1-(5-ethylpyrimidin-2-yl)pyrrolidin-3-yl)-5-(1-methyl-1H-pyrazol-4-yl)nicotinamide]"
9,> 1000,"Cn1cc(-c2cnc(N)c(C(=O)N[C@@H]3CCN(c4ncc5ccccc5n4)C3)c2)cn1 [Example 137, (R)-2-amino-5-(1-methyl-1H-pyrazol-4-yl)-N-(1-(quinazolin-2-yl)pyrrolidin-3-yl)nicotinamide]"
10,> 1000,"CCOC(=O)c1csc(N2CC[C@@H](NC(=O)c3cc(-c4cnn(C)c4)cnc3N)C2)n1 [Example 139, ethyl (R)-2-(3-(2-amino-5-(1-methyl-1H-pyrazol-4-yl)nicotinamido)pyrrolidin-1-yl)thiazole-4-carboxylate]"
11,10 to 100,"Nc1ncc(-c2cnn(C3CCNCC3)c2)cc1C(=O)N[C@@H]1CCN(C(=O)Nc2cc(Cl)cc(Cl)c2)C1 [Example 146, (R)-2-amino-N-(1-((3,5-dichlorophenyl)carbamoyl)pyrrolidin-3-yl)-5-(1-(piperidin-4-yl)-1H-pyrazol-4-yl)nicotinamide]"
12,> 1000,"CC(c1ccc(Cl)c(Cl)c1)N1CC[C@@H](NC(=O)c2cc(-c3cnn(C4CCNCC4)c3)cnc2N)C1 (stereo partly drawn) [Example 150, 2-amino-N-((3R)-1-(1-(3,4-dichlorophenyl)ethyl)pyrrolidin-3-yl)-5-(1-(piperidin-4-yl)-1H-pyrazol-4-yl)nicotinamide]"
13,100 to 1000,"Nc1ncc(-c2cnn(C3CCNCC3)c2)cc1C(=O)NC1CCN(Cc2ccccc2)C1 (stereo not drawn) [Example 152, 2-amino-N-(1-benzylpyrrolidin-3-yl)-5-(1-(piperidin-4-yl)-1H-pyrazol-4-yl)nicotinamide]"
14,100 to 1000,"Nc1ncc(-c2cnn(C3CCNCC3)c2)cc1C(=O)N[C@@H]1CCN(Cc2ccc(F)cc2)C1 [Example 153, (R)-2-amino-N-(1-(4-fluorobenzyl)pyrrolidin-3-yl)-5-(1-(piperidin-4-yl)-1H-pyrazol-4-yl)nicotinamide]"
15,100 to 1000,"COc1cccc(CN2CC[C@@H](NC(=O)c3cc(-c4cnn(C5CCNCC5)c4)cnc3N)C2)c1 [Example 154, (R)-2-amino-N-(1-(3-methoxybenzyl)pyrrolidin-3-yl)-5-(1-(piperidin-4-yl)-1H-pyrazol-4-yl)nicotinamide]"
16,> 1000,"Nc1ncc(-c2cnn(C3CCNCC3)c2)cc1C(=O)N[C@@H]1CCN(Cc2ccc([N+](=O)[O-])cc2)C1 [Example 156, (R)-2-amino-N-(1-(4-nitrobenzyl)pyrrolidin-3-yl)-5-(1-(piperidin-4-yl)-1H-pyrazol-4-yl)nicotinamide]"
17,> 1000,"Nc1ncc(-c2cnn(C3CCNCC3)c2)cc1C(=O)N[C@@H]1CCN(Cc2cc(F)c(F)cc2F)C1 [Example 157, (R)-2-amino-5-(1-(piperidin-4-yl)-1H-pyrazol-4-yl)-N-(1-(2,4,5-trifluorobenzyl)pyrrolidin-3-yl)nicotinamide]"
18,100 to 1000,"Nc1ncc(-c2cnn(C3CCNCC3)c2)cc1C(=O)N[C@@H]1CCN(Cc2ccc(F)c(Cl)c2)C1 [Example 158, (R)-2-amino-N-(1-(3-chloro-4-fluorobenzyl)pyrrolidin-3-yl)-5-(1-(piperidin-4-yl)-1H-pyrazol-4-yl)nicotinamide]"
19,> 1000,"Nc1ncc(-c2cnn(C3CCNCC3)c2)cc1C(=O)N[C@@H]1CCN(Cc2c(Cl)cccc2Cl)C1 [Example 159, (R)-2-amino-N-(1-(2,6-dichlorobenzyl)pyrrolidin-3-yl)-5-(1-(piperidin-4-yl)-1H-pyrazol-4-yl)nicotinamide]"
20,> 1000,"Nc1ncc(-c2cnn(C3CCNCC3)c2)cc1C(=O)N[C@@H]1CCN(Cc2ccc(F)c(F)c2)C1 [Example 160, (R)-2-amino-N-(1-(3,4-difluorobenzyl)pyrrolidin-3-yl)-5-(1-(piperidin-4-yl)-1H-pyrazol-4-yl)nicotinamide]"

row,Compound,IC50 [nM]
1,"Cn1cc(-c2cnc(N)c(C(=O)N[C@@H]3CCN(C(=O)Oc4ccc(Oc5ccc([N+](=O)[O-])cc5)cc4)C3)c2)cn1 [Example 111, 4-(4-nitrophenoxy)phenyl (R)-3-(2-amino-5-(1-methyl-1H-pyrazol-4-yl)nicotinamido)pyrrolidine-1-carboxylate]",> 1000
2,"CN(C)Cc1ccc(Oc2ccc(OC(=O)N3CC[C@@H](NC(=O)c4cc(-c5cnn(C)c5)cnc4N)C3)cc2)cc1 [Example 115, 4-(4-((dimethylamino)methyl)phenoxy)phenyl (R)-3-(2-amino-5-(1-methyl-1H-pyrazol-4-yl)nicotinamido)pyrrolidine-1-carboxylate]",100 to 1000
3,"CN1CCC(n2cc(-c3cnc(N)c(C(=O)N[C@@H]4CCN(C(=O)Oc5ccccc5)C4)c3)cn2)CC1 [Example 119, phenyl (R)-3-(2-amino-5-(1-(1-methylpiperidin-4-yl)-1H-pyrazol-4-yl)nicotinamido)pyrrolidine-1-carboxylate]",> 1000
4,"Nc1ncc(-c2cnn(C3CCNCC3)c2)cc1C(=O)N[C@@H]1CCN(C(=O)Oc2cccc(-c3ccccc3)c2)C1 [Example 147, [1,1′-biphenyl]-3-yl (R)-3-(2-amino-5-(1-(piperidin-4-yl)-1H-pyrazol-4-yl)nicotinamido)pyrrolidine-1-carboxylate]",10 to 100
